According to patent US20140377289A1, “Metallodrugs Having Improved Pharmacological Properties, and Methods of Manufacture and Use Thereof” (MetalloPharm, LLC, priority 2011, published 2014):
Read-outs that look alike come from different tables or passages of the source. Where a SMILES comes first, the peptide text is derived from it. Where no end group is shown, it is not given here. [ ]: non-standard residue; d: D form. The star is where a group is joined. X1 = COCCOCCOCCOCCOCCOCCOCCOCCOCCOCCOCCOCCOCCOCCOCCOCCOCCOCCOCCOCCOCCOCCOCCOCCNC(=O)CCN1C(=O)CC(*)C1=O

Tests used:
[1] = biological target: T1, Recombinant human somatic ACE (sACE-1) (Homo sapiens, UniProt P12821); test: Determination of IC50 values, sACE-1 fluorogenic substrate cleavage; type: biochemical
T1 construct: sACE-1: Leu30-Leu1261, with C-terminal His tag; His tag (C); purchased R&D Systems; host or cells: NS0-derived murine myeloma cell line

[2] = biological target: T1, Recombinant human somatic ACE (sACE-1); test: Time-dependent inactivation of sACE-1; type: biochemical; details: pH 7.4, 37° C.
Protocol: Time-Dependent Inactivation of sACE-1. sACE-1 and each M-chelate-lisinopril complex (prepared in the absence of Zn^2+) were preincubated for 20 min at 37° C. in a buffer containing 50 mM HEPES, 300 mM NaCl, 10 μM ZnCl2, 0.05% Brij35, pH 7.4, and after 20 min, coreactants ascorbate and/or H2O2 (or no coreactants) were added to initiate each reaction. Reaction concentrations were 1 nM sACE-1, a concentration of M-chelate-lisinopril that gave approximately 80% activity (calculated by use of equation (1), where A=80%; concentrations listed in the table in paragraph [00132]), and 1 mM ascorbate and/or H2O2 (or no coreactants). Each time-dependent ACE-inactivation reaction proceeded at 37° C. for a period of 2 h, and at each specific intervening time point, a 68.6 μL, aliquot of the reaction mixture containing sACE-1 was mixed with 1.4 μL of 0.5 mM fluorogenic substrate in a fluorescence cuvette. Substrate cleavage by sACE-1 was immediately monitored by real-time fluorimetry at 37° C., with excitation at 320 nm and emission at 405 nm. Initial rates were determined for each time point for the time-dependent inactivation of sACE-1, and these initial rates were expressed as a percentage (% maximal activity) of the average of several initial rates for uninhibited substrate cleavage by sACE-1, determined in the absence of both M-chelate-lisinopril complexes and coreactants. Plots of % maximal activity vs. time were fit to a first-order exponential decay model, and initial rates of inactivation of sACE-1 by M-chelate-lisinopril complexes were determined. Second-order rate constants for inactivation of sACE-1 were obtained using equation (2), where k2 is the second-order rate constant (M^−1 min^−1), R is the initial rate of enzyme inactivation (M/min) after subtraction of the corresponding background rate in the absence of M-chelate-lisinopril complex, but with the same coreactants, [I] is the concentration of M-chelate-lisinopril complex used (M), and [E] is the concentration of sACE-1 used (1×10^−9 M). Control experiments with M-chelate complexes lacking attached lisinopril were performed in the same manner and conditions used for the respective M-chelate-lisinopril complexes.

pUC19 plasmid DNA = test: DNA nicking and linearization nuclease assay; type: biochemical; details: 10 μM base pairs pUC19; ascorbate/peroxide; — = Below detection limit
full length sACE-1 = biological target: T2, full length sACE-1 (Homo sapiens, UniProt P12821); test: Cleavage of full length sACE-1 monitored by SDS-PAGE; type: biochemical; details: Ascorbate, pH 7.4, 37° C.
T2 construct: sACE-1: Leu30-Leu1261, with C-terminal His tag; His tag (C); purchased R&D Systems; host or cells: NS0-derived murine myeloma cell line

[3] = test system: HCV RNA replicon in ET (luc-ubi-neo/ET) Huh7 cells; details: read-out: antiviral IC50; 72 h, replicon-derived Luc activity
in vitro = details: human
HCV protease [4] = biological target: T3, HCV protease (Hepatitis C virus genotype 1a, UniProt P27958); test: biochemical; type: binding; details: apparent binding affinity
Text: (§1) This stems from the relationship between affinity and the on/off rate constants for binding (KA=kon/koff), where higher affinity binding is promoted by larger kon and/or smaller koff values. By contrast, efficient catalytic turnover requires koff values that are preferably no smaller than the rate constant for the inactivation chemistry (kcat), to ensure the availability of metallodrug catalyst for new target molecules, and will be best promoted by relatively high values for both kon and koff, which will result in weaker KA values.
(§2) Apparent binding affinities and rates of inactivation for HCV protease by several metallopeptide derivatives incorporating a Cu-GGH metal binding domain and C-terminal HCV protease targeting peptides were prepared and their affinity and reactivity were evaluated under in the presence of various redox reagents. Affinities lay within the range of 10^4M^−1 and 5×10^8 M^−1.

HCV protease [5] = biological target: T3, HCV protease; type: biochemical
Text: as §1, §2

[6] = test system: stem loop IV HCV IRES RNA; type: binding, hepatitis C virus (HCV)
Protocol: (§3) RNA was purchased from Dharmacon, part of Thermo Fisher Scientific (Lafayette, Colo.). Peptides were purchased from Genemed Synthesis Inc (South San Francisco, Calif.) with C-terminal amidation. The stem-loop (SL) structure (from Lytle et al., RNA 13: 539-48, 2002) is depicted in FIG. 6. The sequence for the IRES SL IIb RNA used was 5′-Fluorescein-[…]-3′, and for the IRES SL IV RNA was 5′-Fluorescein-[…]-3′. All RNA was annealed by heating to 95° C. and then cooled slowly to room temperature before use.
(§4) RNA binding experiments were performed in the presence of 84 nM GGHYrFK-amide in 20 mM HEPES (pH 7.4), 100 mM NaCl. For GGHYrFK-amide, serial additions of unlabeled IRES RNA were added and tyrosine emission was monitored (λex=280 nm, λem=313 nm). Binding data for GGHYr[…]-amide and GGHYr[…]-amide were obtained by adding serial additions of peptide to 5′-fluorescein labeled IRES SLIIb and monitoring at 518 nm (Ex=485 nm). Data was then fit to a one-site binding model.

[7] = test system: stem-loop IIb of HCV IRES RNA; type: binding, hepatitis C virus (HCV); details: stem-loop IIb
Protocol: as §3, §4

[8] = test system: stem loop IIb HCV IRES RNA; type: biochemical, hepatitis C virus (HCV); details: cleavage of stem-loop IIb; 100 nM catalyst, 1 mM ascorbate, 1 mM H2O2
Protocol: (§5) HCV IRES RNA cleavage was monitored in vitro by fluorescence using 5′ fluorescein end-labeled RNA with excitation and emission wavelengths of 485 nm and 518 nm, respectively. Reactions were carried out in reaction volumes of 100 μl in the presence of 1 mM ascorbate and 1 mM H2O2 in 20 mM HEPES buffer (pH=7.4), 100 mM NaCl with 100 nM of the catalyst and analyzed according to the change in fluorescence observed as the reaction occurred. Both a time-dependence and a concentration-dependence of RNA substrate were observed. The initial velocities were fit to a line using Origin 7.0 software and kobs obtained. These values were then used to obtain the Michaelis-Menten parameters.
The reactivity of select catalytic metallodrugs was investigated by Michaelis-Menten profiles. Reaction chemistry was followed by monitoring the fluorescence change of 5′-fluorescein-labeled RNA as a function of time. Initial velocities were measured as a function of substrate (RNA) concentration to generate a standard Michaelis-Menten plot (FIG. 2).

[9] = test system: stem loop IV HCV IRES RNA; type: biochemical, hepatitis C virus (HCV); details: cleavage of stem loop IV; 100 nM catalyst, 1 mM ascorbate, 1 mM H2O2
Protocol: as §5

HCV protease [10] = biological target: T3, HCV protease; details: cited from earlier work

T3 sequence (P27958 1027-1208, other chains not shown): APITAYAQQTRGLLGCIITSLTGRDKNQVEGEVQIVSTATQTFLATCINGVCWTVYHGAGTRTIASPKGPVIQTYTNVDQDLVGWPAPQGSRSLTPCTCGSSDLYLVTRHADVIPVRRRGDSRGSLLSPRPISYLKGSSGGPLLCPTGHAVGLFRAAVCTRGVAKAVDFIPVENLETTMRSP
T1 sequence (P12821 30-1261): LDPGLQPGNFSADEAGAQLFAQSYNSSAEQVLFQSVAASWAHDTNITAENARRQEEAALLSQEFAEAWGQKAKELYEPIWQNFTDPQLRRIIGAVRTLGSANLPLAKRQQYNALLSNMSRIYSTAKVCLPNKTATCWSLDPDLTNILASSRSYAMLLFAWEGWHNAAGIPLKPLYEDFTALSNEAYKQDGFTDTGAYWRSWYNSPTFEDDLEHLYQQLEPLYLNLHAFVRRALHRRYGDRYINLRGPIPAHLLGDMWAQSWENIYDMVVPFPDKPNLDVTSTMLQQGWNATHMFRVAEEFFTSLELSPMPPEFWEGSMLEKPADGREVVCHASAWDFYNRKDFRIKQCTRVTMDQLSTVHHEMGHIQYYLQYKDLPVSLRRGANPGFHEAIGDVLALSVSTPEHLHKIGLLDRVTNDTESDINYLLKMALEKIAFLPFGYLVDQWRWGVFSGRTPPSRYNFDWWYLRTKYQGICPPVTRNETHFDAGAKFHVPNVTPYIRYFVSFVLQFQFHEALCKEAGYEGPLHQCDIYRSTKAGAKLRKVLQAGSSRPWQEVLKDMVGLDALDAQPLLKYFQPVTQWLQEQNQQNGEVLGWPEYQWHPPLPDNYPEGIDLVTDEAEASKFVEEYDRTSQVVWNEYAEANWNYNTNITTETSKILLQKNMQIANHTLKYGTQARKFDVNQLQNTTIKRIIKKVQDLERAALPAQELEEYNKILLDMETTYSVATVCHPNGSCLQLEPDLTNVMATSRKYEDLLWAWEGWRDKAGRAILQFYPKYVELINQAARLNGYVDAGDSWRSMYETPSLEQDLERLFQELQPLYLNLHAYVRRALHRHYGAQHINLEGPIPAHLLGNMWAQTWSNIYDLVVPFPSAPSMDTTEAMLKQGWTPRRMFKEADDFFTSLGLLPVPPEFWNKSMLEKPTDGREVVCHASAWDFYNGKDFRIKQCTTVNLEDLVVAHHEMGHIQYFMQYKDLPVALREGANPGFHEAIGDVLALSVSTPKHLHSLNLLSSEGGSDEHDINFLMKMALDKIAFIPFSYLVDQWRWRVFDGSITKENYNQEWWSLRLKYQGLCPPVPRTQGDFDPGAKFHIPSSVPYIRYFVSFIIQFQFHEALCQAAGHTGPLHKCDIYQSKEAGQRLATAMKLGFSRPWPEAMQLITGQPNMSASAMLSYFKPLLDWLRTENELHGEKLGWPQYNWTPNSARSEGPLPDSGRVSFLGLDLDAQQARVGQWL
T2 sequence (P12821 30-1261): as above

`COCCOCCOCCOCCOCCOCCOCCOCCOCCOCCOCCOCCOCCOCCOCCOCCOCCOCCOCCOCCOCCOCCOCCOCCNC(=O)CCN1C(=O)CC(SC[C@H](NC(=O)CNC(=O)CNC(=O)[C@H](CCCCN)NC(=O)[C@H](Cc2ccccc2)NC(=O)[C@@H](CCCNC(=N)N)NC(=O)[C@H](Cc2ccc(O)cc2)NC(=O)CNC(=O)[C@H](Cc2c[nH]cn2)NC(=O)CNC(=O)CN)C(N)=O)C1=O` (some centres unmarked) [Cu-GGHGYrFKGGC-PEG24] (H-GGHGY[dR]FKGGC(X1)-NH2) gave a CC50 of over 50 µM.

Work on `COCCOCCOCCOCCOCCOCCOCCOCCOCCOCCOCCOCCOCCOCCOCCOCCOCCOCCOCCOCCOCCOCCOCCOCCOCCOCCOCCOCCOCCOCCOCCOCCOCCOCCOCCOCCOCCOCCOCCOCCOCCOCCOCCOCCOCCOCCOCCOCCNC(=O)CCN1C(=O)CC(SC[C@H](NC(=O)CNC(=O)CNC(=O)[C@H](CCCCN)NC(=O)[C@H](Cc2ccccc2)NC(=O)[C@@H](CCCNC(=N)N)NC(=O)[C@H](Cc2ccc(O)cc2)NC(=O)CNC(=O)[C@H](Cc2c[nH]cn2)NC(=O)CNC(=O)CN)C(N)=O)C1=O` (some centres unmarked) [Cu-GGHGYrFKGGC-PEG48] yielded a CC50 of over 50 µM.

In the case of `NCC(=O)NCC(=O)N[C@@H](Cc1c[nH]cn1)C(=O)O` [Cu-GGH] (H-Gly-Gly-His-OH), the IC50 [1] is reported as 17 µM, the kinact/KI ([2]; pH 7.4, read-out: Second order rate constant for inactivation of sACE-1, M-chelate without lisinopril, Ascorbate + H2O2) is reported as 167 M⁻¹ s⁻¹ and the kinact/KI ([2]; pH 7.4, read-out: Second order rate constant for inactivation of sACE-1, M-chelate without lisinopril, Ascorbate) is reported as under 16.7 M⁻¹ s⁻¹. For the same compound, the kinact/KI ([2]; pH 7.4, read-out: Second order rate constant for inactivation of sACE-1, M-chelate without lisinopril, H2O2) was under 33.3 M⁻¹ s⁻¹, the “klin for DNA linearization, without attached Rev (M-chelate)” value (“klin … without attached Rev (M-chelate)” for short) (pUC19 plasmid DNA) was 0.0012 ± 0.0002 min⁻¹ and the “knick for DNA nicking, without attached Rev (M-chelate)” value (pUC19 plasmid DNA) was 0.06 ± 0.01 min⁻¹.

For `O=C([O-])CN(CC(=O)[O-])CC(=O)O.[Cu+2]` [Cu-NTA], the IC50 ([1]; 1 nM sACE-1, 20 min preincubation, 37° C., pH 7.4, read-out: IC50's) was 36 µM, the “klin … without attached Rev (M-chelate)” value (pUC19 plasmid DNA) was 0.0032 ± 0.0004 min⁻¹ and the “knick for DNA nicking, without attached Rev (M-chelate)” value (pUC19 plasmid DNA) was 0.148 ± 0.007 min⁻¹.

With `O=C([O-])CN(CCN(CC(=O)[O-])CC(=O)[O-])CC(=O)[O-].[Fe+3]` [Fe-EDTA] the “Second order rate constant for inactivation of sACE-1, M-chelate without lisinopril” value ([2]; Ascorbate) was 10,000 ± 50,000 M^−1min^−1, the “Second order rate constant for cleavage of full length sACE-1 (in brackets), M-chelate without lisinopril” value (full length sACE-1) was “{<100,000} M^−1min^−1” and the “klin … without attached Rev (M-chelate)” value (pUC19 plasmid DNA) was 0.0005 ± 0.0001 min⁻¹. For the same compound, the “knick for DNA nicking, without attached Rev (M-chelate)” value (pUC19 plasmid DNA) was 0.044 ± 0.009 min⁻¹.

With `CC[C@H](C)[C@H](NC(=O)[C@H](CCCCN)NC(=O)[C@H](C)NC(=O)[C@H](CCC(=O)O)NC(=O)[C@H](CC(C)C)NC(=O)[C@H](C)NC(=O)[C@H](C)N)C(=O)N[C@@H](CS)C(=O)N[C@@H](Cc1c[nH]cn1)C(=O)N[C@@H](CCC(N)=O)C(=O)N[C@H](C(=O)N[C@@H](CCC(=O)O)C(=O)N[C@@H](Cc1ccc(O)cc1)C(=O)N[C@@H](Cc1ccc(O)cc1)C(=O)N[C@@H](Cc1ccccc1)C(=O)NCC(=O)N[C@@H](CC(=O)O)C(=O)N[C@@H](Cc1ccccc1)C(N)=O)[C@@H](C)CC` [reference compound] (H-AALEAKICHQIEYYFGDF-NH2) the IC50 [3] was over 100 µM and the CC50 at 72 h (in vitro) was over 100 µM.

`CC[C@H](C)[C@H](NC(=O)[C@H](CC(C)C)NC(=O)[C@H](CC(C)C)NC(=O)[C@H](CC(=O)O)NC(=O)[C@@H](NC(=O)[C@H](CCC(=O)O)NC(=O)[C@H](CCCCN)NC(=O)[C@H](Cc1ccc(O)cc1)NC(=O)[C@@H](N)CCCCN)[C@@H](C)O)C(=O)N[C@@H](CC(C)C)C(=O)N[C@@H](Cc1ccccc1)C(=O)N[C@@H](CCCCN)C(=O)N[C@@H](CC(=O)O)C(=O)N[C@@H](CC(=O)O)C(=O)N[C@@H](Cc1ccc(O)cc1)C(=O)N[C@@H](Cc1ccccc1)C(=O)N[C@@H](C)C(=O)N[C@@H](CCCCN)C(=O)N[C@@H](CCCCN)C(=O)N[C@@H](CC(N)=O)C(=O)N[C@@H](CCC(=O)O)C(=O)N[C@@H](CCC(=O)O)C(=O)N[C@@H](CCCNC(=N)N)C(=O)N[C@@H](CCCCN)C(N)=O` [reference compound] (H-KYKETDLLILFKDDYFAKKNEERK-NH2) showed an IC50 [3] of over 100 µM and a CC50 at 72 h (in vitro) of over 100 µM.

With Cu-GGHGDEMEEC the KA (HCV protease [4]) was 48000 M⁻¹, the “rate constant for inactivation kinact (catalytic efficiency)” value (HCV protease [5]; in the presence of ascorbate/O2) was about 1.6 h⁻¹ and the kinact (HCV protease [5]; in the presence of various redox reagents) was 0.04 min⁻¹.

With Cu-GGHKYKETDLLILFKDDYFAKKNEERK-amide the KA [6] was 143000 M⁻¹, the Kd [6] was 7 µM and the KA [7] was 556000 M⁻¹. It also gave a Kd [7] of 1.8 µM, a Vmax [8] of 13.96 RFU/min and a Vmax [9] of 2.0 RFU/min.

For “Cu-GGHYRFK-amide (GGHYRFK-NH2; also: Cu complex)”, the KA [6] was 145000 M⁻¹, the Kd [6] was 6.9 µM and the KA [7] was 145000 M⁻¹. It also gave a Kd [7] of 6.9 µM, a Vmax [8] of 3.96 RFU/min and a Vmax [9] of 0.95 RFU/min.

For DDIVPC [Asp-Asp-Ile-Val-Pro-Cys], the Ki (HCV protease [10]) is given as 79 µM.
